Test results published in paper PMC10314895, “Targeted protein degradation reveals BET bromodomains as the cellular target of Hedgehog pathway inhibitor-1” (Nature Communications, 2023).

What was measured:
Format in all cases: binding
BRD3 [1] = target: T1, BRD3 (Homo sapiens, UniProt Q15059); assay: BromoKd affinity assay (Eurofins Discovery); cellular degradation competed by HPI-1
BRD2 [2] = target: T2, BRD2 (Homo sapiens, UniProt P25440); assay: as above
Target sequence in this assay (P25440 whole entry): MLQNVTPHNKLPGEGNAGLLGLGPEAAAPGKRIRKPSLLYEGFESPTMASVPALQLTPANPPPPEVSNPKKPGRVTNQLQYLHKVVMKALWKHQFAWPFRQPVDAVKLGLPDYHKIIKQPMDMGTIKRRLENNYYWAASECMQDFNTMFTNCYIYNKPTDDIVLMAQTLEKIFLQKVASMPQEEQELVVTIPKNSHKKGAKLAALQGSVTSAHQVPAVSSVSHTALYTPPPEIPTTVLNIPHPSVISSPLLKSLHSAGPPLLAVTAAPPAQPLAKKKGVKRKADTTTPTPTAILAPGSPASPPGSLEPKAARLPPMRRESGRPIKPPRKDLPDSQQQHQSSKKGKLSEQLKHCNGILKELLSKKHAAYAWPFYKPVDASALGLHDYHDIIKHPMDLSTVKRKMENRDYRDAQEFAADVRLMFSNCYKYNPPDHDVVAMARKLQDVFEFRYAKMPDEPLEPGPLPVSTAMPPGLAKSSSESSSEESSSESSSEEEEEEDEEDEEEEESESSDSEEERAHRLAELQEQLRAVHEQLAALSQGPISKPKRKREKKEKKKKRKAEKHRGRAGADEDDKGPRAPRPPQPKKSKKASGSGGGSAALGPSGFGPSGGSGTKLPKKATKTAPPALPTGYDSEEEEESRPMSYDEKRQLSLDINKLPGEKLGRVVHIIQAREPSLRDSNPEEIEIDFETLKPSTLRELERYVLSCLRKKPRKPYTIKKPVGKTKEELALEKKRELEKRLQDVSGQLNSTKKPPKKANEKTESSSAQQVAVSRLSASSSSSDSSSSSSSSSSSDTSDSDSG

BRD4 [3] = target: T3, BRD4 (Homo sapiens, UniProt O60885); assay: as above
BRD2 [4] = target: T2, BRD2; assay: BromoKd affinity assay (Eurofins Discovery); design: second bromodomain BD2, BRD2(2)
Target sequence in this assay (P25440 344-453 limits assumed): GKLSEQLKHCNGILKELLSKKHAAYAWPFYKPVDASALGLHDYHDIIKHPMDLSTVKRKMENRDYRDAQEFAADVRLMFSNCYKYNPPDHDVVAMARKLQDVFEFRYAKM

BRD3 [5] = target: T1, BRD3; assay: BromoKd affinity assay (Eurofins Discovery)
BRD4 [6] = target: T3, BRD4; assay: BromoKd affinity assay (Eurofins Discovery)

T1 sequence (Q15059 2-726): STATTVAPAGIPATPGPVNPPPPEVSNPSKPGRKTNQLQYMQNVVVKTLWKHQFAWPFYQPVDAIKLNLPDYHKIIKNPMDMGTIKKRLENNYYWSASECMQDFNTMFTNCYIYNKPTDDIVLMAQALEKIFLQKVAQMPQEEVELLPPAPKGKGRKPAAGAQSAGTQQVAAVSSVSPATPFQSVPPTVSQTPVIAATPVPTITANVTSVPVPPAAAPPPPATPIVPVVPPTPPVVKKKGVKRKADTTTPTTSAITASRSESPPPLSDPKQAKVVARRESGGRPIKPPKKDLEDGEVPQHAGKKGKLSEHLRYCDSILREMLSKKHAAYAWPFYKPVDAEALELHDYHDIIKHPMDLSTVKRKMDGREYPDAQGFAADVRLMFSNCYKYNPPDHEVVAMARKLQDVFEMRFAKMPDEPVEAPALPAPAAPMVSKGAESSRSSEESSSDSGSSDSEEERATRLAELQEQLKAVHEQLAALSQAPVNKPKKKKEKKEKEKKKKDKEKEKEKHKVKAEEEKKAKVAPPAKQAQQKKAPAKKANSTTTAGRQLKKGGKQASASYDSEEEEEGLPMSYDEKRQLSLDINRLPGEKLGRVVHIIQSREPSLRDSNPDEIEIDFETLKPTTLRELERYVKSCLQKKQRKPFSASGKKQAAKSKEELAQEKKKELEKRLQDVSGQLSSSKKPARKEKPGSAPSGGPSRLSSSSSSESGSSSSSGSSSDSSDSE

SMILES | Kd (BRD3 [1]) [nM] | Kd (BRD2 [2]) [nM] | Kd (BRD4 [3]) [nM] | Kd (BRD2 [4]) [nM] | Kd (BRD3 [5]) [nM] | Kd (BRD4 [6]) [nM]
COCCOC(=O)C1=C(C)NC2=C(C(=O)CC(c3ccccc3OC)C2)C1c1cccc(OCc2cn(CCCCCCOc3cccc4c3C(=O)N(C3CCC(=O)NC3=O)C4=O)nn2)c1 (stereo not drawn) [HPP-9] | ~200 | ~200 | ~200 |  |  | 
COCCOC(=O)C1=C(C)NC2=C(C(=O)CC(c3ccccc3OC)C2)C1c1cccc(O)c1 (stereo not drawn) [HPI-1] |  |  |  | 17 | ~15 | ~15
